# Read-outs that look alike come from different tables or passages of the source.
# Experiments:
# [1] = system: extensor digitorum longus muscle; conditions: after three weeks
# Protocol: In addition, a 0.5% MC solution or physiological saline was orally administered to a control group.
# Then, the concentration of a muscle toxicity-associated enzyme, such as creatine kinase (CK) and lactate dehydrogenase (LDH) in blood was measured and a histological analysis was performed.
# The rats were anesthetized with ether after three weeks of starting the administration for each experimental group; an extensor digitorum longus muscle was removed; fixed in paraffin; and then made into 5 μm coronal sections. The paraffin was removed with xylene, hydrophilicized with alcohol, and then stained with hematoxylin and eosin to observe the tissue through an optical microscope (Olympus Optical, Co., Japan).
# [2] = Frequency of muscular side effects according to dosage (Zocor Tablet Label); type: in vivo; conditions: dosage of 80 mg compared to 20 mg
# Source text: In addition, it is reported that the side effects are increased when the concentration of the statin-based drug in blood is increased in the most cases. […] 16, 2011].
# [3] = after oral administration; cited from earlier work
compound,measurement,setting,value
"CC(C)c1c(C(=O)Nc2ccccc2)c(-c2ccccc2)c(-c2ccc(F)cc2)n1CC[C@@H](O)C[C@@H](O)CC(=O)O [Atorvastatin, atorvastatin]","Degree of Muscle Tissue Damage, Scores (0: Normal, +1: internal nuclei, +2: Myositis, +3: internal nuclei + myositis)",[1]; 40 mg/kg atorvastatin alone,1.0 ± 0.0
same,"Degree of Muscle Tissue Damage, Scores (0: Normal, +1: internal nuclei, +2: Myositis, +3: internal nuclei + myositis)",[1]; 80 mg/kg atorvastatin alone,1.8 ± 0.2
CCC(C)(C)C(=O)O[C@H]1C[C@@H](C)C=C2C=C[C@H](C)[C@H](CC[C@@H]3C[C@@H](O)CC(=O)O3)[C@H]21 [simvastatin],"Increase in frequency of muscular side effects, 80 mg compared to 20 mg",[2],at least 20 times
"CCCCc1nc(Cl)c(CO)n1Cc1ccc(-c2ccccc2-c2nn[nH]n2)cc1 [Losartan, 2-butyl-4 chloro-1-[2-(1H-tetrazol-5-yl)biphenyl-4-ylphenyl]-1H-imidazol-5-methanol]",Time to maximum concentration in the blood (losartan molecules),[3],within one hour

# Source: patent US20130158084A1, “Pharmaceutical Composition Comprising Losartin For Treating or Preventing Statin BasedGrug-Induced Muscle Toxicity” (HANALL BIOPHARMA CO., LTD., priority 2011, published 2013)
